Counter-ions that a name gives are not always drawn.
Assays:
[1] = test system: L. amazonensis LV78 promastigotes; experiment: Anti-promastigote activity (MTS assay), L. amazonensis LV78; format: cell-based; settings: 72 hours
Protocol: (§1) Promastigotes of visceral L. donovani Ld39 and LdHU3, and cutaneous L. amazonensis LV78, L. braziliensis UA847 and L. major FV1 were employed in the study. All strains were cultured in Schneider's Drosophila Medium (Invitrogen), pH 6.9 supplemented with 10% (v/v) heat inactivated fetal bovine serum (Hyclone) with 4 mM glutamine (Sigma) and 25 μg/mL gentamicin solution (Invitrogen) at 27° C. for 4 days. RAW264.7 cells were cultured in supplemented DMEM media with 10% heat inactivated FBS and 100 U/mL penicillin and 100 μg/mL of streptomycin. They were maintained at 37° C. in a humidified atmosphere with 5% CO2. The cells were split constantly after a confluent monolayer has been formed. The cells were harvested by a cell scraper.
(§2) Anti-promastigote activity was determined according to previous procedures (1) by Cell Titer 96® Aqueous Assay (Promega) that employed a tetrazolium compound. Promastigotes were seeded into 96-well flat bottom microtiter plate at 1×10^5 cells per well in a final volume of 100 μL medium and incubated with a series of concentrations of synthetic FM. Parasites were incubated at 27° C. for 72 hours. After 72 hours of incubation, 10 μL of MTS:PMS mixture [MTS:2-(4,5-Dimethylthiazol-2-yl-)-5-[3-(carboxymethoxy)phenyl]-2-(4-sulfophenyl)-2H-tetrazolium); PMS: phenazine methosulfate both purchased from Sigma] was added into each well of microtiter plate. The plate was then incubated at 27° C. for 4 hours for color development. After 4 hours of incubation, the OD values were determined at 490 nm using automatic microtiter plate reader (Bio-Rad).
(§3) IC50 values of known antileishmanials and the amine-containing flavonoid monomers of the present invention to promastigotes (L. amazonensis LV78, L major FV1, L. donovani HU3, L. donovani 39), macrophages (Raw 264.7 and PEM) and mouse fibroblast (L929) were determined. The anti-promastigotes activities and cytotoxicity of the amine-containing flavonoid monomers of the invention are shown in Table 1.

[2] = test system: L. donovani HU3 promastigotes; experiment: Anti-promastigote activity (MTS assay), L. donovani HU3; format: cell-based; settings: 72 hours
Protocol: as §1, §2, §3

[3] = Cytotoxicity, L929 fibroblasts; format: cell-based, mouse; settings: mouse
Protocol: as §3

[4] = Cytotoxicity, peritoneal elicited macrophages (PEM); format: cell-based, mouse; settings: mouse, Cytotoxicity IC50, PEM
Protocol: (§4) Mouse peritoneal elicited macrophages (PEM) were obtained as previously described (2). A round cover slip (12 mm in diameter) was placed into each well of 24-well culture plate. Mouse PEM were resuspended in supplemented DMEM media containing 10% heat inactivated FBS (v/v), 100 U/mL penicillin and 100 μg/mL streptomycin and seeded into each well at a cell density of 1×10^5 cells per 500 μL. Macrophages were allowed to attach overnight. Non-adherent cells were removed by gentle washing with un-supplemented DMEM media twice. Adherent macrophages were infected with late-log promastigotes at a parasite-to-macrophage ratio of 20:1 overnight at 37° C. with 5% CO2. Non-internalized promastigotes were removed by washing twice with un-supplemented DMEM media. Infected macrophages were further incubated in 500 μL of supplemented DMEM media in the presence or absence of FM for 72 hours at 37° C. After incubation, cover slips were stained with Giemsa and the percentage of macrophages infected and number of amastigotes per 100 macrophages was enumerated.
as §3

[5] = test system: L. amazonensis LV78 amastigotes; experiment: Anti-amastigote activity in infected PEM, L. amazonensis LV78; format: cell-based; settings: for IC50: infected PEM, 3 days, Giemsa; for Selective index (a)/(b): IC50 RAW264.7 over IC50 L. amazonensis LV78 amastigotes
Protocol: as §4
(§5) PEM cells were infected with late-log promastigotes (L. amazonensis LV78, L. braziliensis UA847, L. donovani HU3, L. donovani 39) for 24 hr at 37° C. Infected macrophages were then treated with various antileishmanials and incubated for 3 days at 37° C. After 3 days, the cover slips were stained with Giemsa. The number of amastigotes per 100 macrophages were determined and used to calculate IC50 values.

[6] = test system: L. donovani HU3 amastigotes; experiment: Anti-amastigote activity in infected PEM, L. donovani HU3; format: cell-based; settings: infected PEM, 3 days, Giemsa, SSG-sensitive
Protocol: as §4, §5

[7] = Pharmacokinetics study of FM09, FM09h and FM05b, iv and oral; format: in vivo, Balb/c mice; settings: 50 mg/kg oral; for bioavailability: Balb/c, mouse, plasma, 10 mg/kg iv, dose-adjusted AUC oral over iv, read-out: Bioavailability (F)
Protocol: Animals were sacrificed at the indicated time point and plasma level of the corresponding flavonoids were determined using LC-MSMS. IC50 of corresponding flavonoids are indicated. Bioavailability (F) was calculated by dividing the dose-adjusted area under curve (AUC) of that of orally-fed over intravenously administered animals.

[8] = test system: L. amazonensis and L. donovani HU3 promastigotes and amastigotes; experiment: Anti-promastigote and anti-amastigote activity of FM09, FM01 and FM05 derivatives; format: cell-based, Leishmania; settings: stage and strain not specified; read-out: IC50, anti-promastigote and anti-amastigote activity (Table 3C)
Protocol: Derivatives of FM09, FM01 and FM05 were synthesized and their anti-promastigote and anti-amastigote activity were determined (Table 3C). Many amine-containing flavonoid monomers have IC50 less than 5 μM, including FM09a, FM09b, FM09c, FM09e, FM09h, FM09i, FM09k, FM09l, FM01b and FM05b.

[9] = test system: peritoneal elicited macrophages (PEM); experiment: Cytotoxicity, peritoneal elicited macrophages (PEM); format: cell-based, mouse
Protocol: as §4, §3

[10] = test system: mouse fibroblast (L929); experiment: Cytotoxicity, L929 fibroblasts; format: cell-based; settings: mouse fibroblast L929
Protocol: as §3

[11] = test system: L. major FV1 promastigotes; experiment: Anti-promastigote activity (MTS assay), L. major FV1; format: cell-based; settings: 72 hours
Protocol: as §1, §2, §3

[12] = test system: L. donovani Ld39 promastigotes; experiment: Anti-promastigote activity (MTS assay), L. donovani Ld39; format: cell-based; settings: 72 hours
Protocol: as §1, §2, §3

[13] = test system: L. braziliensis UA847 amastigotes; experiment: Anti-amastigote activity in infected PEM, L. braziliensis UA847; format: cell-based; settings: Leishmania braziliensis, 72 h, 3 days, Giemsa, read-out: Anti-amastigote activity IC50, L. baziliensis UA847
Protocol: as §4, §5

[14] = test system: L. donovani Ld39 amastigotes (SSG-resistant); experiment: Anti-amastigote activity in infected PEM, L. donovani Ld39; format: cell-based; settings: for IC50: Leishmania donovani, 72 h, infected PEM, 3 days, Giemsa, SSG-resistant
Protocol: as §4, §5

[15] = test system: amastigotes (L. amazonensis LV78, L. braziliensis UA847, L. donovani HU3, L. donovani 39); experiment: Anti-amastigote activity, strain not given; format: cell-based; settings: strain not specified; visceral and cutaneous Leishmania; read-out: IC50 against amastigotes
Protocol: as §4, §5

[16] = Pharmacokinetics of FM05 hydrochloride salt, oral; format: in vivo, Balb/c mice; settings: mouse, in vivo, po, 42 mg/kg
Protocol: Based on the result of the preliminary in vivo study, FM05 hydrochloride salt was selected for further investigation. FM05 hydrochloride salt was dissolved in saline at 4 mg/ml and administered to male balb/c at 42 mg/kg. Blood plasma samples were collected at various time points for pharmacokinetics analysis (n=2 to 3 for each time point).

IC50 ([1]; Leishmania amazonensis) | IC50 ([2]; Leishmania donovani) | IC50 ([5]; Leishmania amazonensis, 72 h) | IC50 ([6]; Leishmania donovani, 72 h) | IC50 [8] | SMILES | IC50 [3] | IC50 [4] | further results
0.57 ± 0.17 µM | 0.89 ± 0.33 µM | 0.3 ± 0.06 µM | 0.7 ± 0.37 µM | < 5 µM | COc1ccnc(CN2CCC(CCOc3ccc(-c4cc(=O)c5ccccc5o4)cc3)CC2)c1OC [FM05b, 2-(4-(2-(1-((3,4-dimethoxypyridin-2-yl)methyl)piperidin-4-yl)ethoxy)phenyl)-4H-chromen-4-one] | 10.6 ± 1.13 µM | 5.1 µM | Time post oral feeding at which plasma level remains higher than respective IC50 [7]: 420 min; bioavailability [7]: 36%
0.16 ± 0.05 µM | 1.06 ± 0.1 µM | 0.32 ± 0.02 µM | 0.3 ± 0.04 µM | < 5 µM | COCCCOc1ccnc(CN(CCOCCOc2ccc(-c3cc(=O)c4ccccc4o3)cc2)Cc2nccc(OCCCOC)c2C)c1C [FM09k, 2-(4-(2-(2-(bis((4-(3-methoxypropoxy)-3-methylpyridin-2-yl)methyl)amino)ethoxy)ethoxy)phenyl)-4H-chromen-4-one] | 4.7 ± 0.71 µM | 5.3 µM | –
– | – | – | – | – | O=c1cc(-c2ccc(OCCOCCNCc3ccccn3)cc2)oc2ccccc12 [FM09m.HCl] | – | – | IC50 [1]: 14.3 ± 3.3 µM; IC50 [2]: 18.2 ± 2.13 µM; IC50 [9]: 28.3 µM; IC50 [5]: 7.86 ± 2.15 µM; IC50 [6]: > 10 µM
0.08 ± 0.01 µM | 0.18 ± 0.07 µM | 0.27 ± 0.02 µM | 0.3 ± 0.05 µM | < 5 µM | COc1c(C)cnc(CN(CCOCCOc2ccc(-c3cc(=O)c4ccccc4o3)cc2)Cc2ncc(C)c(OC)c2C)c1C [FM09i, 2-(4-(2-(2-(bis((4-methoxy-3,5-dimethylpyridin-2-yl)methyl)amino)ethoxy)ethoxy)phenyl)-4H-chromen-4-one] | 2.28 ± 0.83 µM | 4.5 µM | –
– | – | – | – | – | O=c1cc(-c2ccc(OCCOCCN(Cc3ncccc3F)Cc3ncccc3F)cc2)oc2ccccc12 [FM09c.HCl] | – | – | IC50 [1]: 2.66 ± 0.3 µM; IC50 [2]: 4.97 ± 1.04 µM; IC50 [10]: 39 ± 6.1 µM; IC50 [5]: 1.45 ± 0.31 µM; IC50 [6]: 2.9 ± 1.49 µM
– | – | – | – | – | O=c1cc(-c2ccc(OCCOCCN(Cc3cccnc3)Cc3cccnc3)cc2)oc2ccccc12 [FM09b.HCl] | – | – | IC50 [1]: 8.08 ± 1.99 µM; IC50 [2]: 12.9 ± 7.32 µM; IC50 [10]: 75.1 ± 13.6 µM; IC50 [5]: > 10 µM; IC50 [6]: > 10 µM
0.47 ± 0.07 µM | 1.09 ± 0.09 µM | 0.29 ± 0.05 µM | 0.3 ± 0.04 µM | < 5 µM | Cc1c(OCC(F)(F)F)ccnc1CN(CCOCCOc1ccc(-c2cc(=O)c3ccccc3o2)cc1)Cc1nccc(OCC(F)(F)F)c1C [FM09h, 2-(4-(2-(2-(bis((3-methyl-4-(2,2,2-trifluoroethoxy)pyridin-2-yl)methyl)amino)ethoxy)ethoxy)phenyl)-4H-chromen-4-one] | 3.62 ± 0.51 µM | 6.4 µM | Time post oral feeding at which plasma level remains higher than respective IC50 [7]: 180 min; bioavailability [7]: 5%
4.44 ± 1.24 µM | 4.74 ± 0.56 µM | 3.03 ± 0.41 µM | 4.5 ± 2.38 µM | < 5 µM | O=c1cc(-c2ccc(OCCOCCN(Cc3ccc4ccccc4n3)Cc3ccc4ccccc4n3)cc2)oc2ccccc12 [FM09l, 2-(4-(2-(2-(bis(quinolin-2-ylmethyl)amino)ethoxy)ethoxy)phenyl)-4H-chromen-4-one] | > 100 µM | 67.1 µM | –
> 100 µM | 38.8 ± 6.9 µM | > 10 µM | – | – | CS(=O)(=O)NCCOCCOc1ccc(-c2cc(=O)c3ccccc3o2)cc1 [FM07, N-(2-(2-(4-(4-oxo-4H-chromen-2-yl)phenoxy)ethoxy)ethyl)methanesulfonamide] | 26 ± 4.1 µM | – | IC50 ([11]; Leishmania major): > 100 µM; IC50 ([12]; Leishmania donovani): 21.4 ± 2.6 µM; IC50 [13]: > 10 µM; IC50 [14]: > 10 µM
17.5 ± 3.2 µM | 9.8 ± 2.5 µM | 1.3 ± 0.6 µM | > 10 µM | – | O=c1cc(-c2ccc(OCCOCCN(Cc3ccccc3)Cc3ccccc3)cc2)oc2ccccc12 [FM19, 2-(4-(2-(2-(dibenzylamino)ethoxy)ethoxy)phenyl)-4H-chromen-4-one] | 55.1 ± 7.2 µM | – | IC50 ([11]; Leishmania major): 21.6 ± 4.2 µM; IC50 ([12]; Leishmania donovani): > 100 µM; Selective index (a)/(b) [5]: >76.9; IC50 [13]: < 0.37 µM; IC50 [14]: > 10 µM; IC50 [15]: < 5 µM
– | – | – | – | – | Cl.O=c1cc(-c2ccc(OCCC3CCN(Cc4ccncc4)CC3)cc2)oc2ccccc12 [FM05.HCl] | – | – | IC50 [1]: 6 ± 0.5 µM; IC50 [11]: 3.5 ± 0.9 µM; IC50 [12]: 1.2 ± 0.5 µM; IC50 [9]: 23.8 µM; IC50 ([5]; listed as FM05.HCI): 6.9 ± 0.9 µM; AUC(0-7 hr) [16]: 83089 ng·min/mL; Cmax (obs) [16]: 312.8 ng/mL; Half-life (Distribution and absorption) [16]: 0.417 h; Half-life (Elimination) [16]: 3.37 h; MRT (area) [16]: 5.35 h; Tmax (obs) [16]: 2 h
3.19 ± 0.66 µM | 5.09 ± 1.13 µM | 1.95 ± 0.78 µM | 3.1 µM | < 5 µM | O=c1cc(-c2ccc(OCCOCCN(Cc3ncccc3F)Cc3ncccc3F)cc2)oc2ccccc12 [FM09c, 2-(4-(2-(2-(bis((3-fluoropyridin-2-yl)methyl)amino)ethoxy)ethoxy)phenyl)-4H-chromen-4-one] | – | 35.4 ± 1.05 µM | –
> 100 µM | 66.2 ± 11 µM | > 10 µM | > 9 µM | – | O=C(NCCOCCOc1ccc(-c2cc(=O)c3ccccc3o2)cc1)c1ccncc1 [FM03, N-(2-(2-(4-(4-oxo-4H-chromen-2-yl)phenoxy)ethoxy)ethyl)isonicotinamide] | > 100 µM | – | IC50 ([11]; Leishmania major): > 100 µM; IC50 ([12]; Leishmania donovani): > 100 µM; IC50 [13]: > 10 µM; IC50 [14]: > 10 µM
32.7 ± 26.9 µM | 5.1 ± 1.4 µM | 32.7 ± 26.9 µM | – | – | CCCCCCCCCCCCCCCCOP(=O)([O-])OCC[N+](C)(C)C [Miltefosine, reference compound] | – | 75.3 ± 9.4 µM | IC50 ([11]; Leishmania major): 9.7 ± 1.2 µM; IC50 ([12]; Leishmania donovani): 17.3 ± 2.1 µM; Selective index (a)/(b) [5]: 0.6; IC50 [13]: 13 ± 1.3 µM; Selective index (a)/(c) ([14]; IC50 RAW264.7 over IC50 L. donovani Ld39 amastigotes): 1.3; IC50 [14]: 16 ± 6.4 µM

Reference: patent US10111854B2, “Synthesis and use of amine-containing flavonoids as potent anti-leishmanial agents” (The Hong Kong Polytechnic University, priority 2014, dated 2018)
